The values that follow come from patent US20230181580A1, “TREATMENT OF PROLIFERATIVE DISEASES OF THE CNS” (AUCENTRA THERAPEUTICS PTY LTD, priority 2020, published 2023).

Test [1] concerns GBM cell lines (U87, U251, T98G). Briefly: In vitro tumorigenicity (colony formation) assay. The settings on record: 10 days, crystal violet staining, FIG. 3B. In kind it is cell-based. How it is done: All three GBM cell lines used in this example, namely U87, U251 and T98G, were cultured in Eagle's Minimum Essential Medium (EMEM) with 10% fetal bovine serum in 75 cm^2 flasks at 37° C. and 5% CO2. All cell lines were confirmed to be mycoplasma-free prior to any experiment setup.
A density of 200 to 400 cells/well was seeded in a twelve-well plate and incubated for overnight prior to compound treatment. […] After 10 days, cells were washed with PBS, fixed and stained with crystal violet staining solution (0.05% crystal violet, 1% formaldehyde, 1% PBS, 1% ethanol); the results are shown in FIG. 3B.

A further test deals with CDK2/A (Homo sapiens, UniProt P24941). The test is described as follows: CDK kinase inhibition assay (radiometric / ADP Glo). The format is biochemical. How it is done: (§1) Eurofins Pharma Discovery or Reaction Biology Corporation Kinase Profiler services were used to measure inhibition of CDKs and other kinases by radiometric assay (RIA). Inhibition of CDK4/Cyclin D1, CDK6/Cyclin D3 and CDK9/T1 were also determined in-house using ADP Glo Kinase assays (Promega Corporation, Madison Wis., United States of America). Briefly, the kinase reaction for CDK4/Cyclin D1 and CDK6/Cyclin D3 was performed with kinase reaction buffer ([…] Tris base pH 7.5, 20 mM MgCl2, 0.4 mM DTT), 0.1 mg/ml BSA and RB-CTF substrate (retinoblastoma protein1 C-terminal fraction). For CDK9/CyclinT1, the kinase reaction was performed with standard assay buffer and Kinase Dilution Buffer and RBER-IRStide substrate. Serial dilutions of 1:3 were prepared for test compounds for 10 concentrations (from 10 μM to 0.5 nM). The kinase reactions were started by addition of ATP, incubated for 40 min at 37° C. and then stopped by adding 10 μL of ADP Glo reagent. After incubation at room temperature (RT) in the dark for 40 min, 20 μL of kinase detection reagent was added per well and incubated for 40 min. Luminescence was measured using an EnVision Multilabel plate reader (PerkinElmer, Buckinghamshire, United Kingdom). Positive and negative controls were performed in the presence and absence of CDK kinases, respectively. Half-maximal inhibition (IC50) values were calculated using a 4-parameter logistic non-linear regression model with Graphpad prism (Version 6.0). Apparent inhibition constants (Ki) values were calculated from Km (ATP) and IC50 values for the respective kinases.
For orientation: ADP-Glo first removes unused ATP, then detects ADP through luciferase.

Another test has as its target CDK7/H (Homo sapiens, UniProt P50613). The description is as above. The format is biochemical. As for the experimental part: as §1
For a further test, the target named is CDK9/T1 (Homo sapiens, UniProt P50750). The description is as above. The format is biochemical. As for the experimental part:
as §1

A further test concerns the target CDK1/B (Homo sapiens, UniProt P06493). Described as above. In kind it is biochemical. How it is done:
as §1

In another test the test system is LNCap. The test is described as follows: MTT proliferation assay, prostate. In kind it is cell-based. The settings on record: Homo sapiens, 72 h, read-out: Antiproliferative activity GI50 LNCap. An excerpt:
(§2) Representative compounds from Example 1, were subjected to standard MTT (3-(4,5-dimethylthiazol-2-yl)-2,5-diphenyltetrazolium bromide) and resazurin assays on solid tumour cell lines (including GBM cell lines) and leukemia cell lines, respectively, as previously reported (Wang S et al., J Med Chem 47:1662-1675, 2004; and Diab S. et al. CheMedChem 9:962-972, 2014).
(In general: Tetrazolium assays rely on reduction of a dye to a coloured formazan, in cell work by metabolically active cells.)

In another test the test system is PANC1. The test is described as follows: MTT proliferation assay, pancreas. The format is cell-based. The settings on record: Homo sapiens, PANC-1, 72 h, read-out: Antiproliferative activity GI50 PANC1.
Excerpt: as §2

The subject of test [2] is phosphorylated Rb proteins (pRb Ser780, pRbSer795, pRb807/811). The test is described as follows: Western blot analysis of Rb phosphorylation. In kind it is cell-based. The settings on record: 24 h treatment, FIG. 3A. As for the experimental part: Cells were seeded at a density of 3×10^5 with 10 mL fresh medium on a sterile culture dish and incubated at 37° C. 5% CO2 for overnight prior to compound treatment. After 24 h, cells were harvested with PBS, centrifuged at 300×g for 5 mins, and lysed with 100 μL lysis buffer (25 mM 4-(2-hydroxyethyl)-1-piperazineethanesulphonic acid, 300 mM sodium chloride, 1.5 mM magnesium chloride, 0.5% sodium deoxycholate, 20 mM p-glycerophosphate, 1% Triton X-100, 0.1% sodium dodecyl sulphate, 0.2 mM EDTA, 0.5 mM dithiothreitol, 1 mM sodium orthovanadate and 25× protease inhibitor cocktail). Protein lysate was collected after 10 mins of maximum speed centrifugation at 4° C. The protein concentration of cell lysates was determined through performing a BSA standard curve using the Bio-Rad DC protein assay kit II (Bio-Rad, Sydney, NSW, Australia) according to the manufacturer's protocol. 30 μg protein was measured, mixed with 3× loading buffer and denatured at 95° C. for 5 mins using T100 thermal cycler (Bio-Rad). Molecular mass of each sample was then separated by gel electrophoresis on a 4-20% polyacrylamide gel at 120V for 1 h. The resolved proteins were transferred onto nitrocellulose membranes and blocked with 5% skimmed milk in Tris-buffered saline and Tween 20 (TBST) for 1 h at room temperature. […] Band intensity was determined using a ChemiDoc™ multiplexing imaging system (Bio-Rad). […]
Background: A western blot detects proteins with antibodies after separation by electrophoresis.

The next test relates to Colo205. The test is described as follows: MTT proliferation assay, colorectal. In kind it is cell-based. The settings on record: Homo sapiens, COLO 205, 72 h, read-out: Antiproliferative activity GI50 Colo205.
Excerpt: as §2

The subject of a further test is A2780. Briefly: MTT proliferation assay, ovarian. In kind it is cell-based. The settings on record: Homo sapiens, 72 h, read-out: Antiproliferative activity GI50 A2780.
Excerpt: as §2

The next test concerns MV4-11. The test is described as follows: Resazurin proliferation assay, leukaemia cell line. The format is cell-based. The settings on record: Homo sapiens, 72 h, read-out: Antiproliferative activity GI50 MV4-11.
Excerpt: as §2

CDK9/T1, sequence (P50750 whole entry): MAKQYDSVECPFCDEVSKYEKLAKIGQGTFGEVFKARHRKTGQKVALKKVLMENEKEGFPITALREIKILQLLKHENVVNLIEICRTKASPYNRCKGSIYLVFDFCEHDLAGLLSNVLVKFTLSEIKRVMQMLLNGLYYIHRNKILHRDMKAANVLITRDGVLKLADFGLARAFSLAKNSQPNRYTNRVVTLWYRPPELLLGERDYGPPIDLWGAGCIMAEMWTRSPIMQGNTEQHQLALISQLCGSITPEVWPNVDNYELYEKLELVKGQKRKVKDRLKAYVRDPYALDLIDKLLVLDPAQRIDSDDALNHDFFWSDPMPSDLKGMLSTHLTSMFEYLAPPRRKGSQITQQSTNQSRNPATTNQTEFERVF
CDK9/T1, sequence (O60563 whole entry partner): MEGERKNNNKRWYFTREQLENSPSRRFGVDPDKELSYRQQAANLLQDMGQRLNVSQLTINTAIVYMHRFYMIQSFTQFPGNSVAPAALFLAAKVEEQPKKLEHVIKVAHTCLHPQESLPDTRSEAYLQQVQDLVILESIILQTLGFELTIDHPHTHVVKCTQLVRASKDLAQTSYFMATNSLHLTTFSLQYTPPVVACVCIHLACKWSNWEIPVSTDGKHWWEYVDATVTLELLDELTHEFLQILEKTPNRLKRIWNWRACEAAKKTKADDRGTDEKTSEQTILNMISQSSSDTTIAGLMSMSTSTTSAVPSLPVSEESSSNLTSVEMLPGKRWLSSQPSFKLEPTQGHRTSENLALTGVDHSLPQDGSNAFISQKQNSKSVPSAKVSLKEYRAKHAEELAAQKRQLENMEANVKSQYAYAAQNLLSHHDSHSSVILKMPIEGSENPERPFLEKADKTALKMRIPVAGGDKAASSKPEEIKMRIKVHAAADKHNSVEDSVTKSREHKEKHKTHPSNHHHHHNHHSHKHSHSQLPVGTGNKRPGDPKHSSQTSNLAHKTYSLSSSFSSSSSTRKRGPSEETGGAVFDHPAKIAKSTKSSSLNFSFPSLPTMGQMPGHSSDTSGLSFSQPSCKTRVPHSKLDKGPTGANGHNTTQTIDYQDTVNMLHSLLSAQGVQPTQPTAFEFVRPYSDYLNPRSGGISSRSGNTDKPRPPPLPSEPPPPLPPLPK
CDK7/H, sequence (P50613 whole entry): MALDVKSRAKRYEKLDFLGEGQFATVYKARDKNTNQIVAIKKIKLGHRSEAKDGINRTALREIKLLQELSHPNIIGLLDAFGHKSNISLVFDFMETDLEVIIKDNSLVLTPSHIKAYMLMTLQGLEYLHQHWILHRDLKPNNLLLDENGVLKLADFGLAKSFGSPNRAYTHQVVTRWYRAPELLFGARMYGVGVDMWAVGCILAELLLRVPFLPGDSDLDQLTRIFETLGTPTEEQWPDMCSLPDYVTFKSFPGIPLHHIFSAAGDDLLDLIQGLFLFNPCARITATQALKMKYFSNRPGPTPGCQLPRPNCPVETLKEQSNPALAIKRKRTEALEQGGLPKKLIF
CDK7/H, sequence (P51946 whole entry partner): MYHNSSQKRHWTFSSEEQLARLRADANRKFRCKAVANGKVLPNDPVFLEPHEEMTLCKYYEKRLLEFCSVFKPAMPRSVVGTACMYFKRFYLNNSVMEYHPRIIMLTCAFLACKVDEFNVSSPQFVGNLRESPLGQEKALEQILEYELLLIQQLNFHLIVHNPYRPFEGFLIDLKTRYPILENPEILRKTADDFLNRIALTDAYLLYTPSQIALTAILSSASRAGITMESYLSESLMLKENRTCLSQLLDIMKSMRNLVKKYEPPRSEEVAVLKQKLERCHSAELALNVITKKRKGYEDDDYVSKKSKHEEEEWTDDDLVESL
CDK7/H, sequence (P51948 whole entry partner): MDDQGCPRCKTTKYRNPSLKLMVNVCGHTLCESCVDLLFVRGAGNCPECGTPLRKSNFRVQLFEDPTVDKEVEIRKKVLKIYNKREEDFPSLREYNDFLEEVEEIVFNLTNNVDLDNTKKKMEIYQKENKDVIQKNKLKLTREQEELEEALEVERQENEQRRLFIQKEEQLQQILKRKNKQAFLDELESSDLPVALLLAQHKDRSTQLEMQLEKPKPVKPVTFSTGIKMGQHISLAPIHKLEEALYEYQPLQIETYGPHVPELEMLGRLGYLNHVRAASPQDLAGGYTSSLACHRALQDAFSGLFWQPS
CDK1/B, sequence (P06493 whole entry): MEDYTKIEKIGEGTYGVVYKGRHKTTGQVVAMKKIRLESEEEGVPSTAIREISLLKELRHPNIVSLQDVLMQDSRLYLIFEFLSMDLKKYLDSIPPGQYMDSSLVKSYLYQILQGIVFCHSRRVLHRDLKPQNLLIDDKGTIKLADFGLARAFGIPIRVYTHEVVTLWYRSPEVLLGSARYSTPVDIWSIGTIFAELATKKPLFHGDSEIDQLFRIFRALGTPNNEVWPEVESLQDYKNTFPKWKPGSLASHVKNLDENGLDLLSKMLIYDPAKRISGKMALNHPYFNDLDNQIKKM
CDK1/B, sequence (P14635 whole entry partner): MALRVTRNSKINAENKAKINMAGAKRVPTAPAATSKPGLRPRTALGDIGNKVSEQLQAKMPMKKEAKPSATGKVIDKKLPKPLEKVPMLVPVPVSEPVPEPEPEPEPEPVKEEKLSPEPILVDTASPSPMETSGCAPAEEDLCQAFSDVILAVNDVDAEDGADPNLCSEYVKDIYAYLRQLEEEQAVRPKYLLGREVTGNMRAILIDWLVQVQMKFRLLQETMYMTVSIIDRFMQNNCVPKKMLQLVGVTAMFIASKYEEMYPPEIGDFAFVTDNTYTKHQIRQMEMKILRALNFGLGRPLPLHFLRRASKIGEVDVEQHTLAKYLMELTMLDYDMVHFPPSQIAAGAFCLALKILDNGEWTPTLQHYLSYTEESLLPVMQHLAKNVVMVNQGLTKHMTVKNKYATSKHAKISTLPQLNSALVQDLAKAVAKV

On to `CNc1nc(C)c(-c2nc(Nc3ccc(N4CCC(N(C)C)CC4)cn3)ncc2F)s1` [Compound 1, 5-(2-((5-(4-(dimethylamino)piperidin-1-yl)pyridin-2-yl)amino)-5-fluoropyrimidin-4-yl)-N,4-dimethylthiazol-2-amine], for which the “growth and proliferation (colony formation)” value in [1] is “inhibits the growth and proliferation of all three GBM cell lines”. Further, the inhibition constant (Ki) at CDK2/A, at CDK7/H, on CDK9/T1 and on CDK1/B was more than 1 µM each time. Also, the concentration for 50% growth inhibition (GI50) (usually the concentration at which growth is held to half of that of the control) with LNCap was 0.62 µM; in the test on PANC1, 1.32 µM; with Colo205, 2.32 µM; with A2780 it was 0.07 µM; with MV4-11, 0.11 µM. For the same compound, the “level of phosphorylated Rb proteins” value in [2] is recorded as “reduces the level of phosphorylated Rb proteins”.
